Experimental findings from patent publication US20260191968A1, “PROTAC DEGRADERS OF MLLT1 AND/OR MLLT3” (DARK BLUE THERAPEUTICS LTD, priority 2024, published 2026) are described below.

In one test the target is T1, MLLT1 (Homo sapiens, UniProt Q03111).
T1 construct: host or cells: MV4-11
T1 sequence (Q03111 1-559): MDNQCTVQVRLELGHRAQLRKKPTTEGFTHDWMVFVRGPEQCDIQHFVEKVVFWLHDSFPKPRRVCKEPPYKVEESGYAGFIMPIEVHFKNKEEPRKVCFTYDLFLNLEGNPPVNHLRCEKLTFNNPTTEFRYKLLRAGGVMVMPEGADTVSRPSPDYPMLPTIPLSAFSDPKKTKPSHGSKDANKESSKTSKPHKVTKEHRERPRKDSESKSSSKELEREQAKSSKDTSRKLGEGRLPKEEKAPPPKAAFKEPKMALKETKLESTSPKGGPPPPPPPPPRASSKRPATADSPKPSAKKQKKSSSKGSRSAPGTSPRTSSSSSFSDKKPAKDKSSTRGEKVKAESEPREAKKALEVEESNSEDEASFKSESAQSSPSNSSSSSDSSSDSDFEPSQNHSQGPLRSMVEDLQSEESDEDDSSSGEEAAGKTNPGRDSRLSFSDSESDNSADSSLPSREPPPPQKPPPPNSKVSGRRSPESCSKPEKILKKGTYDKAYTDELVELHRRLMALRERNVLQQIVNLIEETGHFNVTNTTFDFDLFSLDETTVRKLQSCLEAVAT
The test can be described thus: MLLT1 degradation assay in MV4-11 cells (JESS chemiluminescent detection), three concentrations, 24 h. Type of test: cell-based. The note with it: with respect to DMSO control. A digest of the protocol: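 MV4-11 cells treated 24 h at 37° C, 5% CO2 with 1000, 100 and 10 nM compound (0.1% DMSO final). MLLT1 quantified by automated capillary chemiluminescent immunodetection; band peak area expressed as % degradation relative to DMSO control.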

In a further test the test system is MV4-11 cells. The experiment in a line: MV4-11 cellular proliferative assay, Assay Format B (CTG 2.0, 168 h). It is filed as cell-based. The note with it: Homo sapiens, 168 h (7 days), CTG 2.0, read-out: IC50 (MV4-11 cellular proliferative assay, Assay format B). The method in brief:
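MV4-11 cells seeded overnight in IMDM + 10% FBS, then exposed to 10-point, 3-fold dilutions from 1 uM or 100 nM top concentration (0.3% DMSO final) for 168 h at 37 °C. CTG 2.0 luminescence read; % viability vs DMSO control fitted by four-parameter logistic regression.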

As to `CN1CCC[C@@H]1c1cc2cnc(NC(=O)c3ccc(OCCC4CCN(c5cccc6c5CN(C5CCC(=O)NC5=O)C6=O)CC4)cc3F)cc2[nH]1` (stereo in doubt) [Example 172, 4-(2-(1-(2-((rel-S)-2,6-dioxopiperidin-3-yl)-1-oxoisoindolin-4-yl)piperidin-4-yl)ethoxy)-2-fluoro-N-(2-((R)-1-methylpyrrolidin-2-yl)-1H-pyrrolo[3,2-c]pyridin-6-yl)benzamide], on MLLT1, the “MLLT1% Degradation @ 0.01 μM” value is “A (Category A: A ≥ 75% degradation)”, the “MLLT1% Degradation @ 0.1 μM” value is “A (Category A: A ≥ 75% degradation)” and the “MLLT1% Degradation @ 1 μM” value is listed as “A (Category A: A ≥ 75% degradation)”. The IC50 in the test with MV4-11 cells is at most 100 nM.

Consider `CN1CCC[C@@H]1c1cc2cnc(NC(=O)c3ccc(N4CCC(c5ccc(-c6cccc7c6CN(C6CCC(=O)NC6=O)C7=O)cc5)CC4)nc3)cc2[nH]1` (stereo partly drawn) [Example 67, 6-(4-(4-(2-(2,6-dioxopiperidin-3-yl)-1-oxoisoindolin-4-yl)phenyl)piperidin-1-yl)-N-(2-((R)-1-methylpyrrolidin-2-yl)-1H-pyrrolo[3,2-c]pyridin-6-yl)nicotinamide], for which, at MLLT1, the “MLLT1% Degradation @ 0.01 μM” value is recorded as “A (Category A: A ≥ 75% degradation)”, the “MLLT1% Degradation @ 0.1 μM” value is “A (Category A: A ≥ 75% degradation)” and the “MLLT1% Degradation @ 1 μM” value is “A (Category A: A ≥ 75% degradation)”. Moreover, the IC50 in the test with MV4-11 cells is at most 100 nM.

`CN1CCC[C@@H]1c1cc2cnc(NC(=O)c3ccc(CCCC#Cc4cccc5c4CN([C@H]4CCC(=O)NC4=O)C5=O)cc3)cc2[nH]1` (relative stereo) [Example 102, 4-(5-(2-((rel-S)-2,6-dioxopiperidin-3-yl)-1-oxoisoindolin-4-yl)pent-4-yn-1-yl)-N-(2-((R)-1-methylpyrrolidin-2-yl)-1H-pyrrolo[3,2-c]pyridin-6-yl)benzamide]: at MLLT1, the “MLLT1% Degradation @ 0.01 μM” value is recorded as “A (Category A: A ≥ 75% degradation)”, the “MLLT1% Degradation @ 0.1 μM” value is “A (Category A: A ≥ 75% degradation)” and the “MLLT1% Degradation @ 1 μM” value is “A (Category A: A ≥ 75% degradation)”. Moreover, in the test with MV4-11 cells, the half-inhibitory concentration (IC50) was at most 100 nM.

Consider `CN1CCC[C@@H]1c1cc2cnc(NC(=O)c3ccc(OCC4CCN(c5cccc6c5CN(C5CCC(=O)NC5=O)C6=O)CC4)cc3)cc2[nH]1` (stereo partly drawn) [Example 159, 4-((1-(2-(2,6-dioxopiperidin-3-yl)-1-oxoisoindolin-4-yl)piperidin-4-yl)methoxy)-N-(2-((R)-1-methylpyrrolidin-2-yl)-1H-pyrrolo[3,2-c]pyridin-6-yl)benzamide], for which, at MLLT1, the “MLLT1% Degradation @ 0.01 μM” value was “A (Category A: A ≥ 75% degradation)”, the “MLLT1% Degradation @ 0.1 μM” value is “A (Category A: A ≥ 75% degradation)” and the “MLLT1% Degradation @ 1 μM” value is “A (Category A: A ≥ 75% degradation)”. Besides, the IC50 with MV4-11 cells was at most 100 nM.

For the compound `CN1CCC[C@@H]1c1cc2cnc(NC(=O)c3ccc(C4CCN(CC5CCN(c6cccc7c6CN(C6CCC(=O)NC6=O)C7=O)CC5)CC4)nc3)cc2[nH]1` (stereo partly drawn) [Example 119, 6-(1-((1-(2-(2,6-dioxopiperidin-3-yl)-1-oxoisoindolin-4-yl)piperidin-4-yl)methyl)piperidin-4-yl)-N-(2-((R)-1-methylpyrrolidin-2-yl)-1H-pyrrolo[3,2-c]pyridin-6-yl)nicotinamide], on MLLT1, the “MLLT1% Degradation @ 0.01 μM” value is given as “B (Category B: 50% ≤ B < 75% degradation)”, the “MLLT1% Degradation @ 0.1 μM” value is reported as “A (Category A: A ≥ 75% degradation)” and the “MLLT1% Degradation @ 1 μM” value was “A (Category A: A ≥ 75% degradation)”. Besides, the IC50 in the test with MV4-11 cells was at most 100 nM.

As to `CN1CCC[C@@H]1c1cc2cnc(NC(=O)c3ccc(OCC#Cc4cccc5c4n(C)c(=O)n5C4CCC(=O)NC4=O)cc3)cc2[nH]1` (stereo partly drawn) [Example 66, 4-((3-(1-(2,6-dioxopiperidin-3-yl)-3-methyl-2-oxo-2,3-dihydro-1H-benzo[d]imidazol-4-yl)prop-2-yn-1-yl)oxy)-N-(2-((R)-1-methylpyrrolidin-2-yl)-1H-pyrrolo[3,2-c]pyridin-6-yl)benzamide], at MLLT1, the “MLLT1% Degradation @ 0.01 μM” value is “A (Category A: A ≥ 75% degradation)”, the “MLLT1% Degradation @ 0.1 μM” value was “A (Category A: A ≥ 75% degradation)” and the “MLLT1% Degradation @ 1 μM” value was “A (Category A: A ≥ 75% degradation)”. Besides, the IC50 in the test with MV4-11 cells is at most 100 nM.

In the case of `CN1CCC[C@@H]1c1cc2cnc(NC(=O)c3cccc(C4CCN(c5cccc6c5C(=O)N(C5CCC(=O)NC5=O)C6=O)CC4)c3)cc2[nH]1` (stereo partly drawn) [Example 14, 3-(1-(2-(2,6-dioxopiperidin-3-yl)-1,3-dioxoisoindolin-4-yl)piperidin-4-yl)-N-(2-((R)-1-methylpyrrolidin-2-yl)-1H-pyrrolo[3,2-c]pyridin-6-yl)benzamide], on MLLT1, the “MLLT1% Degradation @ 0.01 μM” value is listed as “B (Category B: 50% ≤ B < 75% degradation)”, the “MLLT1% Degradation @ 0.1 μM” value was “A (Category A: A ≥ 75% degradation)” and the “MLLT1% Degradation @ 1 μM” value is “A (Category A: A ≥ 75% degradation)”. In addition, the IC50 with MV4-11 cells is at most 100 nM.

Take `CN1CCC[C@@H]1c1cc2cnc(NC(=O)c3ccc(CCCC#Cc4cccc5c4CN(C4CCC(=O)NC4=O)C5=O)nc3)cc2[nH]1` (stereo partly drawn) [Example 12, 6-(5-(2-(2,6-dioxopiperidin-3-yl)-1-oxoisoindolin-4-yl)pent-4-yn-1-yl)-N-(2-((R)-1-methylpyrrolidin-2-yl)-1H-pyrrolo[3,2-c]pyridin-6-yl)nicotinamide]: on MLLT1, the “MLLT1% Degradation @ 0.01 μM” value is listed as “B (Category B: 50% ≤ B < 75% degradation)”, the “MLLT1% Degradation @ 0.1 μM” value is on record as “A (Category A: A ≥ 75% degradation)” and the “MLLT1% Degradation @ 1 μM” value is “A (Category A: A ≥ 75% degradation)”. In the test on MV4-11 cells, the IC50 is at most 100 nM.

Consider `CN1CCC[C@@H]1c1[nH]c2cc(NC(=O)c3ccc(OCCC4CCN(c5cccc6c5CN(C5CCC(=O)NC5=O)C6=O)CC4)cc3)ncc2c1Cl` (stereo in doubt) [Example 161, N-(3-chloro-2-((R)-1-methylpyrrolidin-2-yl)-1H-pyrrolo[3,2-c]pyridin-6-yl)-4-(2-(1-(2-((rel-S)-2,6-dioxopiperidin-3-yl)-1-oxoisoindolin-4-yl)piperidin-4-yl)ethoxy)benzamide], for which, on MLLT1, the “MLLT1% Degradation @ 0.01 μM” value is recorded as “A (Category A: A ≥ 75% degradation)”, the “MLLT1% Degradation @ 0.1 μM” value was “A (Category A: A ≥ 75% degradation)” and the “MLLT1% Degradation @ 1 μM” value is reported as “A (Category A: A ≥ 75% degradation)”. The 50% inhibitory concentration (IC50) with MV4-11 cells was at most 100 nM.

For `CN1CCC[C@@H]1c1cc2cnc(NC(=O)c3ccc(OCCC4CCN(c5cccc6c5CN(C5CCC(=O)NC5=O)C6=O)CC4)cn3)cc2[nH]1` (stereo partly drawn) [Example 216, 5-(2-(1-(2-(2,6-dioxopiperidin-3-yl)-1-oxoisoindolin-4-yl)piperidin-4-yl)ethoxy)-N-(2-((R)-1-methylpyrrolidin-2-yl)-1H-pyrrolo[3,2-c]pyridin-6-yl)picolinamide], on MLLT1, the “MLLT1% Degradation @ 0.01 μM” value was “A (Category A: A ≥ 75% degradation)”, the “MLLT1% Degradation @ 0.1 μM” value is reported as “A (Category A: A ≥ 75% degradation)” and the “MLLT1% Degradation @ 1 μM” value was “A (Category A: A ≥ 75% degradation)”. Besides, the IC50 in the test on MV4-11 cells was at most 100 nM.
